Test results reported in US20230357189A1, “MODIFIED FLUOROQUINOLONES AND USES THEREOF” (Technion Research & Development Foundation Limited, priority 2021, published 2023).
Values after ≈ are worked out from the molar mass of the structure shown. Blank lines part the entries; values can stand above or below the molecule they belong to.

Experiments:
[1] = test system: Escherichia coli R477-100; assay: Antibacterial activity, MIC by double-microdilution method; format: cell-based; details: Escherichia coli R477-100; for Gram-negative MIC a / MIC: Table 2, without DTT; for MIC: R477100, read-out: Gram-negative MIC a
Escherichia coli 25922 = assay: as above; format: cell-based; details: Table 2, Escherichia coli 25922; for MIC: read-out: Gram-negative MIC b
[2] = test system: Staphylococcus Epidermidis; assay: as above; format: cell-based; details: for Gram-positive MIC c: Table 2; for MIC: Table 2, read-out: Gram-positive MIC c
Bacillus Subtilis = assay: as above; format: cell-based; details: Bacillus Subtilis; for Gram-positive MIC d / MIC: Table 2; for MIC: read-out: Gram-positive MIC d
[3] = test system: supercoiled (+) pHOT-1 plasmid DNA; assay: DNA cleavage assay (gel electrophoresis); format: biochemical; details: for DNase activity (cleavage of supercoiled plasmid, form I to form II): HEPES buffer (50 mM, pH 7.4)
Procedure: Removal of Ligands Prior to Electrophoresis was performed when more than 100 μM of Cu(II)-ligand or Co(III) ligand (at any concentration) complexes were employed that is, for DNA cleavage assays that were performed in the absence of any adjuvants. An Amberlyst® 15 (Sigma Aldrich) ion-exchange resin was prepared according to the reported literature [Hettich et al. J. Am. Chem. Soc. 1997, 119 (24), 5638-5647] and stored at −20° C. Before use, 0.5 gram of the exchanger was mixed with 250 μL of water. After stopping the DNA-cleavage reaction by addition of EDTA (54 mM, 15 minutes incubation at 37° C.), 10 μL of the exchanger suspension was added, vortexed, and incubated at 37° C. for 15 minutes before centrifugation and electrophoresis.
DNA cleavage activity of the tested Complexes towards supercoiled (+) pHOT-1 plasmid DNA (TopoGEN) was monitored by gel electrophoresis. In a typical experiment, plasmid DNA (200 ng, […]) in HEPES buffer (50 mM, pH 7.4) was mixed with different concentrations of a tested metal complex in the presence or absence of ascorbic acid (0.32 mM). All stock solutions of buffers and of the metal complexes were prepared using HPLC grade water (ChromAR®). Molecular biology reagent grade water (Sigma) was added up to a total reaction volume of 30 μL before incubation for a given time. For the ascorbic acid assays, the reaction was quenched immediately after incubation with EDTA (54 mM). For analysis, 10 μL of loading buffer (40% sucrose, 100 mM Tris-HCl (pH 7.5), 1 mM EDTA, 0.5 mg·mL^−1 bromophenol blue) was added to the incubated solution and loaded onto an agarose (SeaKem LE) gel [1% in TAE×1 buffer (40 mM Tris, 20 mM acetic acid, 1 mM EDTA)]. Electrophoresis was carried out at 60 V for 2 hours. Gels were stained with 1 μg·mL^−1 ethidium bromide for 30 minutes and de-stained in TAE×1 buffer. DNA bands were visualized with medium-range ultraviolet light using Bio-Rad Gel Doc XR+ imaging system. The quantity of different DNA forms (I or II) was estimated using ImageJ software.
Chem. 2015, 2015 (28), 4722-4730; Kashiba-Iwatsuki et al. FEBS Lett. 1996, 389 (2), 149-15].
The copper complex of compound 2 (2-Cu(II)) was used as the positive control in these assays.

[4] = test system: Gram-negative and Gram-positive bacteria; assay: Comparative antibacterial activity, all tested bacteria; format: cell-based; details: for antibacterial activity (in words): MIC, Table 2 and 3
Procedure: Comparative antibacterial activities were determined by measuring the MIC values by using the double-microdilution method according to the National Committee for Clinical Laboratory Standards (NCCLS). The Luria-Bertani growth medium and polypropylene 96-well plates (Thermo) were used unless otherwise stated. All the experiments were performed in triplicate, and analogous results were obtained in three different experiments.
Compounds 1-6 and their Cu(II) and Co(III) complexes, as well as the pendant-bearing compounds 19-23 and 26 were tested for their comparative antibacterial activity by determining MIC values against two Gram-negative E. coli strains (AR477-100 and 25922) and two Gram-positive strains, Staphylococcus Epidermidis, and Bacillus Subtilis.

E. coli DNA gyrase = biological target: T1, E. coli DNA gyrase (Escherichia coli, UniProt P0AES4+P0AES6); assay: E. coli Gyrase-DNA supercoiling assay; format: biochemical; details: supercoiling of relaxed pHOT-1 plasmid in presence of ATP; 37° C., 60 minutes
T1 construct: purchased TopoGEN
Procedure: The DNA supercoiling reactions were based on the manufacturer protocol (TopoGEN). The amount of DNA gyrase used in each assay was optimized by testing various dilutions of the stock. The amount sufficient to supercoil 250 nanograms (ng) of the substrate in 1 hour at 37° C. was then used for testing the compounds (1.1 U as defined by manufacturer). Assays (30 μL) contained 250 nanograms of relaxed pHOT1 plasmid DNA in Tris-HCl buffer (35 mM), pH 7.5, containing KCl (24 mM), MgCl2 (4 mM), DTT (2 mM), Spermidine (1.8 mM), ATP (1 mM), 6.5% (w/v) glycerol and bovine serum albumin (0.1 mg/ml). Reactions were incubated at 37° C. for 60 minutes. Reaction mixtures were stopped by the addition of 30 μL of loading buffer (40% sucrose, 100 mM Tris·HCl (pH 7.5), 1 mM EDTA, 0.5 mg×mL^−1 bromophenol blue) and worked up using 30 μL of 24:1 chloroform/isoamyl alcohol mixture; the aqueous layer was then analyzed using electrophoresis.
Electrophoresis, gel staining, DNA visualization and DNA quantification were performed as described for the DNA cleavage assays.

[5] = test system: supercoiled (+) pHOT-1 plasmid DNA; assay: DNA cleavage assay (gel electrophoresis); format: biochemical

Structure (SMILES): N=C(N)NCCN1CCNCCNCCN(CCCCc2ccc(CN3CCN(c4cc5c(cc4F)c(=O)c(C(=O)O)cn5C4CC4)CC3)cc2)CC1 [Compound 22]
Gram-negative MIC, DTT 10 mM ([1]; DTT 10 mM): 3 µg/mL | Gram-negative MIC a [1]: 3 µg/mL | Gram-negative MIC, DTT 0 mM ([1]; Table 3, DTT 0 mM): 3 µg/mL | Gram-negative MIC, DTT 2 mM ([1]; Table 3, DTT 2 mM): 3 µg/mL | Gram-negative MIC b (Escherichia coli 25922): 3 µg/mL | Gram-positive MIC c [2]: 6 µg/mL | Gram-positive MIC d (Bacillus Subtilis): 1.5 µg/mL | Gram-positive MIC, DTT 0 mM (Bacillus Subtilis; Table 3, DTT 0 mM): 1.5 µg/mL | Gram-positive MIC, DTT 2 mM (Bacillus Subtilis; Table 3, DTT 2 mM): 1.5 µg/mL | Gram-positive MIC, DTT 10 mM (Bacillus Subtilis; Table 3, DTT 10 mM): 1.5 µg/mL | DNase activity (cleavage of supercoiled plasmid, form I to form II) ([3]; absence of adjuvants, 5 hours): significant DNase activity | antibacterial activity (in words) [4]: slightly higher activity | better antibacterial activity compared to all the other pendant-bearing metal-free ligands ([4]; Table 2 MIC): 4-8 fold

Structure (SMILES): O=C(O)c1cn(C2CC2)c2cc(N3CCN(Cc4ccc(CCCN5CCNCCNCCNCC5)cc4)CC3)c(F)cc2c1=O [Compound 6]
MIC [1]: 3 µg/mL (≈ 4.73 µM) | MIC (Escherichia coli 25922): 1.5 µg/mL (≈ 2.37 µM) | MIC [2]: 1.5 µg/mL (≈ 2.37 µM) | MIC (Bacillus Subtilis): 3 µg/mL (≈ 4.73 µM) | IC50 (E. coli DNA gyrase): 70 ± 20 nM | antibacterial activity (in words) [4]: slightly higher activity

DNase activity at micromolar concentrations ([3]; FIG. 32: 0.2 μg DNA over 2 hours (Co(III)-cyclen, 4-Co(III)), 0.6 μg DNA over 10 hours (23-Co(III))): inactive | DNase activity in TRIS buffer with ATP ([5]; 50 mM TRIS buffer, 1.8 mM ATP): not inhibited by ATP | DNase activity in TRIS buffer with glutamate ([5]; 50 mM TRIS buffer, 100 mM potassium glutamate): very strongly inhibited by glutamate
Structure (SMILES): C1CNCCNCCNCCN1.O.[Co+3].[OH-] [Co(III)-cyclen, reference compound]
effect of Co(III) complexes on plasmid DNA ([3]; absence of adjuvants, HEPES pH 7.4, 0.5 hours, micromolar concentrations): no effect whatsoever

Structure (SMILES): O=C(O)c1cn(C2CC2)c2cc(N3CCN(Cc4ccc(CCN5CCNCCNCCNCC5)cc4)CC3)c(F)cc2c1=O [Compound 5]
MIC [1]: 6 µg/mL (≈ 9.68 µM) | MIC (Escherichia coli 25922): 3 µg/mL (≈ 4.84 µM) | MIC [2]: 3 µg/mL (≈ 4.84 µM) | MIC (Bacillus Subtilis): 3 µg/mL (≈ 4.84 µM) | IC50 (E. coli DNA gyrase): 150 ± 40 nM | antibacterial activity (in words) [4]: slightly higher activity

Structure (SMILES): O.O=C(O)c1cn(C2CC2)c2cc(N3CCN(Cc4ccc(CCN5CCNCCNCCNCC5)cc4)CC3)c(F)cc2c1=O.[Cu+2] [5-Cu(II)]
Gram-negative MIC a [1]: 6 µg/mL | Gram-negative MIC b (Escherichia coli 25922): 6 µg/mL | Gram-positive MIC c [2]: 6 µg/mL | Gram-positive MIC d (Bacillus Subtilis): 3 µg/mL | IC50 (E. coli DNA gyrase): 180 ± 30 nM | DNase activity (cleavage of supercoiled plasmid, form I to form II) ([3]; absence of adjuvants, 5 hours): significant cleavage enhancement even in relation to the activity of 1-Cu(II) and 4-Cu(II) | effect of NaN3 on cleavage ([3]; ascorbic acid (0.32 mM), complex 0.01 mM, scavenger 10 mM, 2 hours): no inhibition whatsoever | effect of hydroxyl radical scavengers DMSO and t-BuOH on cleavage ([3]; no adjuvants, complex 0.5 mM, scavengers 10 mM, 5 hours): no significant inhibitory effect | oxidative cleavage activity in Tris buffer with DTT ([5]; Tris-HCl buffer (35 mM, pH 7.5), DTT (2 mM), complex 0.5 mM, 2.5 hours): retain significant oxidative cleavage activity | hydrolytic DNA cleavage in presence of Tris-buffer or spermidine ([5]; complex 0.5 mM, 2.5 hours): inhibit the hydrolytic DNA cleavage of plasmid DNA
